This note sets out measurements from PMC5984089, “FBXW7 regulates DISC1 stability via the ubiquitin-proteosome system” (Molecular Psychiatry, 2017).

Residues, ends and D or L forms follow the SMILES beside them. *: point of attachment. Cbz = O=C(OCc1ccccc1)*

This test deals with DISC1, neural progenitors derived from patients carrying a 4-bp deletion in the DISC1 gene. In words: DISC1 protein level in patient iPS-derived neural progenitors (DISC1 frameshift, 4-bp deletion), western blot. In kind it is cell-based, human. The text has this:
All iPS derived neural progenitors were provided by Pfizer Neuroscience (Cambridge, MA, USA). The iPS cell lines D2 and D3 and family control cell line C1 were generated using a non-integrated approach by Dr Hongjun Song at Johns Hopkins University and cultured as described previously.[8] The Detroit iPS cell line was generated by Dr S. Engle at Pfizer Neuroscience. Detroit 551 fibroblasts were obtained from ATCC (CCL-110) and maintained in Knockout DMEM (Life Technologies 10829-018), 15% FBS (Life Technologies), 1x Non-essential amino acids (Life Technologies 11140-050), 2 mM L-glutamine (Life Technologies 25030-081), 1x Gentamicin (Life Technologies 15710-072), 0.1 mM β-mercaptoethanol (Sigma M-7522). The cells were reprogrammed with individual lentiviruses expressing c-MYC, KLF4, SOX2, OCT3/4, NANOG, and LIN28. One colony, Detroit 551-3, with ES-like morphology, high expression of pluripotency markers (for example, OCT3/4, TRA-1-60, TRA-1-81, SSEA4), a normal karyotype, […] the ability to form all three germ layers in a teratoma assay was used in all subsequent experiments. […]

`CC(C)C[C@@H](C=O)NC(=O)[C@H](CC(C)C)NC(=O)[C@H](CC(C)C)NC(=O)OCc1ccccc1` [MG132] (Cbz-Leu-Leu-Leu-aldehyde): the “DISC1 protein level in NPs from D2-1 (patient) iPS cells, proteasomal inhibition” value (MG132 10 µM, day 18, up to 3 hours, n=2, western blot) is “stabilization of DISC1 protein levels within first 30 min up to 3 hours”. Moreover, where the note is “MG132, Supplementary Figure 10D”, the “DISC1 level in patient-derived NP cells after MG132” value is reported as “could be enhanced by MG132 treatment”.
